The results in this text go back to PubChem BioAssay (NCI).

Among the test systems are SN12C renal; OVCAR-3 ovarian; CCRF-CEM leukemia; A549 NSCLC; K-562 leukemia; SNB-19 CNS; M14 melanoma; NCI-H226 lung; HOP-62 NSCLC; A498 renal.
Assay in all cases: growth of human tumour cells (NCI), 48 h

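In this assay, cells in 96-well plates receive the compound at five concentrations for 48 hours. Endpoints are linearly interpolated between the surrounding concentrations. GI50 is the concentration that inhibits growth by half. TGI is the concentration that stops growth completely.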

In the case of `COc1cc2ccc(CC(N)=O)cc2cc1OC`, the TGI in the test on SN12C renal, in the test with OVCAR-3 ovarian, in the test on CCRF-CEM leukemia, with A549 NSCLC, in the test on K-562 leukemia and in the test with SNB-19 CNS was more than 100 µM each time. Further, the TGI in the test on M14 melanoma, in the test on NCI-H226 lung and in the test with HOP-62 NSCLC was more than 100 µM throughout.

As to `O=C(COc1ccc(-c2nc3cc(Cl)c(Cl)cc3[nH]2)cc1)N=Nc1c(O)[nH]c2ccccc12`, the GI50 with A498 renal was 3.62 µM; with SN12C renal, 3.85 µM; in the test with OVCAR-3 ovarian it was 2.7 µM; in the test on CCRF-CEM leukemia it was 0.749 µM; with K-562 leukemia, 0.675 µM; with SNB-19 CNS, 1.78 µM. Besides, the GI50 in the test on M14 melanoma is 4.17 µM. The TGI in the test on A498 renal is 18.6 µM; in the test with SN12C renal it was more than 100 µM; with OVCAR-3 ovarian it was more than 100 µM; with CCRF-CEM leukemia, more than 100 µM; with K-562 leukemia, more than 100 µM; in the test on SNB-19 CNS it was 6.62 µM. In addition, the TGI is more than 100 µM in the test with M14 melanoma and more than 40.8 µM in the test with HOP-62 NSCLC.

In the case of `CCCC#CCOC(=O)c1cc([N+](=O)[O-])cc([N+](=O)[O-])c1`, the TGI in the test with A498 renal, in the test with SN12C renal, in the test on OVCAR-3 ovarian, in the test with CCRF-CEM leukemia, in the test with A549 NSCLC and in the test on K-562 leukemia was more than 100 µM each time. Moreover, the TGI in the test with SNB-19 CNS, with M14 melanoma and in the test with HOP-62 NSCLC was more than 100 µM each time.

For the compound `Cc1ccc(C)c2c(N=Nc3ccccc3[N+](=O)[O-])c(O)[nH]c12`, the TGI in the test with A498 renal, with SN12C renal, in the test on OVCAR-3 ovarian, in the test with CCRF-CEM leukemia, with A549 NSCLC and in the test on K-562 leukemia was more than 100 µM each time. Besides, the TGI with SNB-19 CNS, in the test on M14 melanoma and in the test with HOP-62 NSCLC was more than 100 µM throughout.

For `Cc1cc2c(=O)cc(-c3ccc(F)cc3)oc2c(C(=O)O)c1C`, the TGI with SN12C renal, in the test on OVCAR-3 ovarian, with CCRF-CEM leukemia, in the test with A549 NSCLC, in the test with K-562 leukemia and with SNB-19 CNS was more than 100 µM each time. The TGI in the test with M14 melanoma and with NCI-H226 lung was more than 100 µM in each case.

On to `O=C(Sc1sc(=S)sc1SC(=O)c1ccccc1)c1ccccc1`, for which the TGI in the test on A498 renal was 78 µM; in the test with SN12C renal, more than 100 µM; in the test on OVCAR-3 ovarian, more than 100 µM; in the test on CCRF-CEM leukemia, more than 100 µM; in the test on A549 NSCLC, 70.6 µM; with K-562 leukemia, more than 100 µM. In addition, the TGI with SNB-19 CNS is more than 100 µM; with M14 melanoma it was more than 100 µM; with HOP-62 NSCLC, 72.4 µM.

Turning to `COc1ccc(C(=O)OC2C(OC3C(O)COC(O[C@H]4C[C@H]5[C@@H]6CC=C7C[C@@H](O)CC[C@]7(C)[C@H]6CC[C@]5(C)[C@H]4[C@H](C)C(=O)CCC(C)C)C3OC(C)=O)OCC(O)C2O)cc1` (stereo partly drawn), the GI50 in the test with A498 renal is less than 0.003 µM; with SN12C renal it was 1.11 µM; in the test on OVCAR-3 ovarian, 0.0533 µM; in the test with A549 NSCLC it was less than 0.003 µM; with HOP-62 NSCLC, less than 0.003 µM. The TGI was less than 0.003 µM in the test with A498 renal; 28.3 µM in the test with SN12C renal; 6.88 µM in the test with OVCAR-3 ovarian; 9.95 µM in the test on A549 NSCLC; 0.592 µM in the test on HOP-62 NSCLC.

For the compound `CC12CC(Sc3ccccc3N1)c1ccccc1O2` (stereo not drawn), the TGI in the test on A498 renal is 33 µM; in the test with SN12C renal it was 36 µM; in the test on OVCAR-3 ovarian it was 30.3 µM; in the test with CCRF-CEM leukemia it was 36.5 µM; in the test with A549 NSCLC, 41.9 µM; in the test with K-562 leukemia it was 40.2 µM. Also, the TGI in the test on SNB-19 CNS was found to be 30 µM; in the test with M14 melanoma, 37.6 µM; in the test on HOP-62 NSCLC it was 38.4 µM.

Regarding `COc1ccc(-c2nc(-c3nc4ccc(C(F)(F)F)cc4[nH]3)c3ccccn23)cc1`, the GI50 in the test on A498 renal is more than 100 µM; in the test on SN12C renal, more than 100 µM; in the test with OVCAR-3 ovarian, more than 100 µM; with CCRF-CEM leukemia it was 7.4 µM; in the test on A549 NSCLC, 28.5 µM; in the test on K-562 leukemia it was 35.3 µM. The GI50 was more than 100 µM with SNB-19 CNS, 83.1 µM in the test on M14 melanoma and 38 µM in the test on HOP-62 NSCLC. The TGI with A498 renal, with SN12C renal, with OVCAR-3 ovarian, in the test on CCRF-CEM leukemia, in the test on A549 NSCLC and with K-562 leukemia was more than 100 µM throughout. The TGI with SNB-19 CNS, with M14 melanoma and in the test with HOP-62 NSCLC was more than 100 µM throughout.

As for `C[n+]1c(/C=C/c2ccc(/C=N/NC(=O)c3ccc(C(=O)N/N=C/c4ccc(/C=C/c5cn6ccccc6[n+]5C)cc4)cc3)cc2)cn2ccccc21`, the TGI in the test on SN12C renal was more than 100 µM; in the test on OVCAR-3 ovarian it was more than 100 µM; in the test with CCRF-CEM leukemia it was 49.8 µM; with A549 NSCLC it was more than 100 µM; in the test with SNB-19 CNS, more than 100 µM; in the test on M14 melanoma it was more than 100 µM. The same compound yielded a TGI with HOP-62 NSCLC of more than 100 µM.
